Test results: patent publication US11285156B2, “Substituted piperazines as KRAS G12C inhibitors” (Amgen Inc., priority 2018, dated 2022)

Target: GDP-bound KRAS protein (aa 1-169), containing both G12C and C118A amino acid substitutions (Homo sapiens (Human), UniProt P01116, C118A/G12C)
Experiment: Coupled nucleotide exchange assay (SOS-mediated nucleotide exchange, AlphaScreen)
Assay type: biochemical
Settings: 5 min compound pre-incubation

Chain of GDP-bound KRAS protein (aa 1-169), containing both G12C and C118A amino acid substitutions (P01116 other isoform, or with tags, fused parts or gaps G12C/C118A): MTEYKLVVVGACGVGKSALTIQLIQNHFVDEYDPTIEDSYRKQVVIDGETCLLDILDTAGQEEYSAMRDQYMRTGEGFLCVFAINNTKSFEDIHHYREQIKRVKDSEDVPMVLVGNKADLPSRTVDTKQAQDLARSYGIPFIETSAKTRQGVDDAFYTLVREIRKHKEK

Compared with `C=CC(=O)N1C[C@H](C)N(c2nc(=O)n(-c3c(C(C)C)cc(N4CCC4)nc3C(C)C)c3nc(-c4ccccc4F)c(Cl)cc23)C[C@H]1C` [Example 182, 4-((2S,5R)-4-Acryloyl-2,5-dimethylpiperazin-1-yl)-1-(6-(azetidin-1-yl)-2,4-diisopropylpyridin-3-yl)-6-chloro-7-(2-fluorophenyl)pyrido[2,3-d]pyrimidin-2(1H)-one], `C=CC(=O)N1[C@H](C)CN(c2nc(=O)n(-c3c(C(C)C)cnnc3C(C)C)c3nc(-c4ccccc4F)c(Cl)cc23)C[C@@H]1C` [Example 206-1, 4-(cis-4-Acryloyl-3,5-dimethylpiperazin-1-yl)-6-chloro-1-(3,5-diisopropylpyridazin-4-yl)-7-(2-fluorophenyl)pyrido[2,3-d]pyrimidin-2(1H)-one] is 61-fold lower in “Coupled exchange IC50 (5 min; μM)” value: 8.794 µM for the first, 0.143 µM for the second.

Same assay, conditions: read-out: Coupled exchange IC50 (5 min; μM); 5 min compound pre-incubation

Going from `C=CC(=O)N1C[C@H](C)N(c2nc(=O)n(-c3c(C(C)C)ncnc3C(C)C)c3nc(-c4ccccc4S(C)(=O)=O)c(Cl)cc23)C[C@H]1C` [Example 100-7, 6-Chloro-1-(4,6-diisopropylpyrimidin-5-yl)-4-[(2S,5R)-2,5-dimethyl-4-prop-2-enoyl-piperazin-1-yl]-7-(2-methylsulfonylphenyl) pyrido[2,3-d]pyrimidin-2-one] to `C=CC(=O)N1C[C@H](C)N(c2nc(=O)n(-c3c(C(C)C)nc(CC)nc3C(C)C)c3nc(-c4ccccc4F)c(Cl)cc23)C[C@H]1C` [Example 169, 6-Chloro-4-[(2S,5R)-2,5-dimethyl-4-prop-2-enoyl-piperazin-1-yl]-1-(2-ethyl-4,6-diisopropyl-pyrimidin-5-yl)-7-(2-fluorophenyl)pyrido[2,3-d]pyrimidin-2-one], the IC50 falls from 5.1 µM to 0.55 µM (9.3-fold). The second is the more potent here.

Going from `CC(C)c1ncnc(C(C)C)c1-n1c(=O)nc(N2CCN(C(=O)/C=C/CN(C)C)C[C@@H]2C)c2cc(Cl)c(-c3ccccc3F)nc21` [Example 102-2, 6-Chloro-1-(4,6-diisopropylpyri-midin-5-yl)-4-[(2S)-4-[(E)-4-(dimethylamino)but-2-enoyl]-2-methyl-piperazin-1-yl]-7-(2-fluorophenyl) pyrido[2,3-d]pyrimidin-2-one] to `C=CC(=O)N1C[C@H](C)N(c2nc(=O)n(-c3c(C(C)C)nc(-c4ccoc4)nc3C(C)C)c3nc(-c4ccccc4F)c(Cl)cc23)C[C@H]1C` [Example 171, 6-Chloro-4-[(2S,5R)-2,5-dimethyl-4-prop-2-enoyl-piperazin-1-yl]-7-(2-fluorophenyl)-1-[2-(3-furyl)-4,6-diisopropyl-pyrimidin-5-yl]pyrido[2,3-d]pyrimidin-2-one], the IC50 falls from 1.23 µM to 0.206 µM (6-fold). The second is the more potent here.

Compared with `C=CC(=O)N1C[C@H](C)N(c2nc(=O)n(-c3c(C)cc(P(C)(C)=O)cc3C(C)C)c3nc(-c4ccccc4F)c(Cl)cc23)C[C@H]1C` [Example 102-7, 6-Chloro-1-(4-dimethylphosphoryl-2-isopropyl-6-methyl-phenyl)-4-[(2S,5R)-2,5-dimethyl-4-prop-2-enoyl-piperazin-1-yl]-7-(2-fluorophenyl) pyrido[2,3-d]pyrimidin-2-one], `C=CC(=O)N1C[C@H](C)N(c2nc(=O)n(-c3c(C(C)C)ccnc3C(=O)N(C)C)c3nc(-c4ccccc4F)c(Cl)cc23)C[C@H]1C` [Example 102-8, 3-[6-Chloro-4-[(2S,5R)-2,5-dimethyl-4-prop-2-enoyl-piperazin-1-yl]-7-(2-fluorophenyl)-2-oxo-pyrido[2,3-d]pyrimidin-1-yl]-4-isopropyl-N,N-dimethyl-pyridine-2-carboxamide] is 490-fold higher in IC50: 0.376 µM for the first, 184 µM for the second. The first is the more potent here.

`C=CC(=O)N1C[C@H](C)N(c2nc(=O)n(-c3c(C)ccnc3C(C)C)c3nc(-c4ccccc4F)c(Cl)nc23)C[C@H]1C` [Example 106-6, 6-Chloro-4-[(2S,5R)-2,5-dimethyl-4-prop-2-enoyl-piperazin-1-yl]-7-(2-fluorophenyl)-1-(2-isopropyl-4-methyl-3-pyridyl)pteridin-2-one] and `C=CC(=O)N1C[C@@H](C)N(c2nc(=O)n(-c3c(C)ccnc3C(C)C)c3nc(-c4ccccc4F)c(Cl)nc23)[C@@H](C)C1` [Example 106-7, 6-Chloro-4-[(2R,6S)-2,6-dimethyl-4-prop-2-enoyl-piperazin-1-yl]-7-(2-fluorophenyl)-1-(2-isopropyl-4-methyl-3-pyridyl)pteridin-2-one] are within 1.5-fold of each other in IC50: 0.322 µM for the first, 0.301 µM for the second.

First: C=CC(=O)N1C[C@@H](C)N(c2nc(=O)n(-c3c(C)ccnc3C(C)C)c3nc(-c4ccccc4F)c(Cl)nc23)[C@@H](C)C1 [Example 106-7-1, 6-Chloro-4-[(2R,6S)-2,6-dimethyl-4-prop-2-enoyl-piperazin-1-yl]-7-(2-fluorophenyl)-1-(2-isopropyl-4-methyl-3-pyridyl)pteridin-2-one]
Second: CC#CC(=O)N1C[C@H](C)N(c2nc(=O)n(-c3c(C)ccnc3C(C)C)c3nc(-c4ccccc4F)c(F)cc23)C[C@H]1C [Example 119-1, 4-((2S,5R)-4(But-2-ynoyl)-2,5-dimethylpiperazin-1-yl)-6-fluoro-7-(2-fluorophenyl)-1-(2-isopropyl-4-methylpyridin-3-yl)pyrido[2,3-d]pyrimidin-2(1H)-one]
The IC50 of the first is 12-fold lower: 1.98 µM for the first, 24 µM for the second. The first is the more potent here.

Compared with `C=CC(=O)N1CCN(c2nc(=O)n(CC(C)(C)C#N)c3nc(-c4ccccc4F)c(Cl)cc23)CC1` [Example 106-10, 3-[6-Chloro-7-(2-fluorophenyl)-2-oxo-4-(4-prop-2-enoylpiperazin-1-yl)pyrido[2,3-d]pyrimidin-1-yl]-2,2-dimethyl-propanenitrile], `C=CC(=O)N1C[C@H](C)N(c2nc(=N)n(CC(C)(C)C)c3nc(-c4ccccc4F)c(Cl)cc23)C[C@H]1C` [Example 150, 1-((2R,5S)-4-(6-Chloro-7-(2-fluorophenyl)-2-imino-1-neopentyl-1,2-dihydropyrido[2,3-d]pyrimidin-4-yl)-2,5-dimethylpiperazin-1-yl)prop-2-en-1-one] is 39-fold lower in IC50: 12.1 µM for the first, 0.313 µM for the second.

`Cc1ccnc(C(C)C)c1-n1c(=O)nc(N2C[C@@H](C)N(C(=O)C#CCN(C)C)C[C@@H]2C)c2cc(F)c(-c3ccccc3F)nc21` [Example 119-2, 4-((2S,5R)-4-(4-(Dimethylamino)but-2-ynoyl)-2,5-dimethylpiperazin-1-yl)-6-fluoro-7-(2-fluorophenyl)-1-(2-isopropyl-4-methylpyridin-3-yl)pyrido[2,3-d]pyrimidin-2(1H)-one] and `C=CC(=O)N1C[C@H](C)N(c2nc(=O)n(-c3c(C(C)C)ccnc3C(C)C)c3nc(-c4ccccc4C)c(F)cc23)C[C@H]1C` [Example 124-5, 1-(2,4-Diisopropyl-3-pyridyl)-4-[(2S,5R)-2,5-dimethyl-4-prop-2-enoyl-piperazin-1-yl]-6-fluoro-7-(o-tolyl)pyrido[2,3-d]pyrimidin-2-one] are within 1.5-fold of each other in IC50: 0.33 µM for the first, 0.439 µM for the second.

Going from `C=CC(=O)N1C[C@H](C)N(c2nc(=O)n(-c3c(N(C)C)ccnc3C(C)C)c3nc(-c4c(F)cccc4NC(=O)C4CC4)c(Cl)cc23)C[C@H]1C` [Example 122-3, N-[2-[6-Chloro-1-[4-(dimethylamino)-2-isopropyl-3-pyridyl]-4-[(2S,5R)-2,5-dimethyl-4-prop-2-enoyl-piperazin-1-yl]-2-oxo-pyrido[2,3-d]pyrimidin-7-yl]-3-fluoro-phenyl]cyclopropanecarboxamide] to `C=CC(=O)N1C[C@H](C)N(c2nc(=O)n(-c3c(CN(CC)C(C)C)ccnc3C(C)C)c3nc(-c4ccccc4C(C)C)c(Cl)cc23)C[C@H]1C` [Example 141-2, 6-Chloro-4-[(2S,5R)-2,5-dimethyl-4-prop-2-enoyl-piperazin-1-yl]-1-[4-[[ethyl(isopropyl)amino]methyl]-2-isopropyl-3-pyridyl]-7-(2-isopropylphenyl)pyrido[2,3-d]pyrimidin-2-one], the IC50 falls from 0.503 µM to 0.279 µM (1.8-fold).

Going from `C=CC(=O)N1C[C@H](C)N(c2nc(=O)n3c4nc(c(Cl)cc24)-c2ccccc2C/C=C\Cc2cccc(C(C)C)c2-3)C[C@H]1C` [Example 146-1, (F)-(9Z)-19-Chloro-22-((2S,5R)-2,5-dimethyl-4-(2-propenoyl)-1-piperazinyl)-3-(2-propanyl)-1,23,26-triazapentacyclo[16.6.2.0˜2,7˜.0˜12,17˜0˜21,25-]hexacosa-2,4,6,9,12,14,16,18,20,22,25-undecaen-24-one and (F)-19-chloro-22-((2S,5R)-2,5-dimethyl-4-(2-propenoyl)-1-piperazinyl)-3-(2-propanyl)-1,23,26-triazapentacyclo[6.6.2.0˜2,7˜.0˜12,17˜.0˜21,25˜]hexacosa-2,4,6,9,12,14,16,18,20,22,25-undecaen-24-one] to `C=CC(=O)N1C[C@H](C)N(c2nc(=O)n(-c3c(C)nc(C)nc3C(C)C)c3nc(-c4ccccc4F)c(C)cc23)C[C@H]1C` [Example 195, 4-((2S,5R)-4-Acryloyl-2,5-dimethylpiperazin-1-yl)-7-(2-fluorophenyl)-1-(4-isopropyl-2,6-dimethylpyrimidin-5-yl)-6-methylpyrido[2,3-d]pyrimidin-2(1H)-one], the IC50 falls from 12.8 µM to 0.488 µM (26-fold).

Compared with `C=CC(=O)N1C[C@H](C)N(c2n/c(=N\C)n(CC(C)(C)C)c3nc(-c4ccccc4F)c(Cl)cc23)C[C@H]1C` [Example 151, 1-((2R,5S)-4-((Z)-6-Chloro-7-(2-fluorophenyl)-2-(methylimino)-1-neopentyl-1,2-dihydropyrido[2,3-d]pyrimidin-4-yl)-2,5-dimethylpiperazin-1-yl)prop-2-en-1-one 2,2,2-trifluoroacetate], `C=CC(=O)N1C[C@H](C)N(c2nc(=O)n(-c3c(C)cc(CN(C)C)cc3C(C)C)c3nc(-c4c(N)cccc4F)c(F)cc23)C[C@H]1C` [Example 184, 4-((2S,5R)-4-Acryloyl-2,5-dimethylpiperazin-1-yl)-7-(2-amino-6-fluorophenyl)-1-(4-((dimethylamino)methyl)-2-isopropyl-6-methylphenyl)-6-fluoropyrido[2,3-d]pyrimidin-2(1H)-one] is 8.1-fold higher in IC50: 0.348 µM for the first, 2.81 µM for the second. The first is the more potent here.

Work on `C=CC(=O)N1C[C@H](C)N(c2nc(=O)n(-c3ccccc3C(C)C)c3c2CCN(c2ccccc2)C3)C[C@H]1C` [Example 152, 4-((2S,5R)-4-Acryloyl-2,5-dimethylpiperazin-1-yl)-1-(2-isopropylphenyl)-7-phenyl-5,6,7,8-tetrahydropyrido[3,4-d]pyrimidin-2(1H)-one] yielded an IC50 of 132 µM.
